Earlier results in patent US8093271B2, “Anti-acid pharmaceutical composition in powder form and process for making it” (Laboratorios Bago S.A., priority 2006, dated 2012).
Where two headings read alike, the source gives them in different places.

What was measured:
[1] = in water

half life ([1]; pH near 7): about 14 hours | half life ([1]; pH of 4): lower than 10 minutes | time by which absorption is completed (absorption in the small intestine): 3 to 6 h | time required to reach the intestine (fasting state): 20 to 30 min
Compound: COc1ccc2[nH]c([S+]([O-])Cc3ncc(C)c(OC)c3C)nc2c1 (stereo not shown) [omeprazole]
